Data from patent publication US20160304970A1, “GENE BIOMARKER TO DIAGNOSE METASTIC LIVER CANCER AND METHODS FOR TARGETING THE SAME” (University of Southern California, priority 2015, published 2016).
Several values for one entry are separate records, joined by “and”; a condition that tells them apart may be missing. Equal entries are not always repeated.

Tests used:
CD133 (+) Huh7 cells [1] = assay: CD133 cell viability screening (luminescence, CellTiter-Glo); assay type: cell-based; details: Homo sapiens, Huh-7
Protocol: (§1) CD133(+) and CD133(−) Huh7 cells were freshly sorted using the MACS CD133 micro bead kit (Miltenyi Biotec, 130-050-801) and were seeded in 100 μl medium containing 5000 cells per well in a 96-well plate. Once the cells attached, the FDA approved drug library was added to each well to a final concentration of 20 μg/ml in duplicate. After incubation for 48 hours, the cell viability was determined by a luminescence assay. […] After 16 hours, 1 μl of a […] drug solution was individually added to the 96 wells, resulting in a 20 μg/ml final concentration for most compounds. After 48 hours, CellTiter-Glo® Reagent (G8233, Promega) was added and the luminescence signal was measured with an automated plate reader. The raw data for each well was background-corrected by DMSO control wells on the same plate.
Freshly sorted CD133 (+) Huh7 or mouse TICs were plated in 100 μl of medium containing 5000 cells per well in a 96-well plate. After 16 hours, 0.5 μl of a 2 μg/ml, 1 μg/ml, 0.2 μg/ml, 0.1 μg/ml, 0.02 μg/ml, or 0.01 μg/ml compound was added to each well in triplicate, resulting in a 10 μg/ml, 5 μg/ml, 1 μg/ml, 0.5 μg/ml, 0.1 μg/ml, and 0.05 μg/ml final concentration for most compounds, respectively. After 48 hours, the cells were either measured for cell viability by Cell-Glo® Reagent (Promega), or fixed with 1% PFA (paraformaldehyde) and stained with DAPI for high-throughput screening.

[2] = as above; assay type: cell-based; details: human, CD133 (−) Huh7 cells (freshly MACS-sorted)
Protocol: as §1

TICs = assay: Annexin V-PI staining and caspase activity analysis; assay type: cell-based; details: 6 and 12 hours; p<0.05
Protocol: Annexin V staining was performed according to the manufacturer's instructions (A35110, Invitrogen). In brief, after drug treatment, the cells were washed twice with ice-cold phosphate-buffered saline (PBS) and detached by trypsin/EDTA. The cells were then incubated with 5 μl of Annexin V-APC in a 100 μl of cell suspension at room temperature for 15 minutes. After incubation, the cells were mixed with propidium iodide solution and analyzed by flow cytometry.
The caspase activity assay was performed according to the manufacturer's instructions (G8090, G8200, and G8210, Promega). In brief, 10,000 cells were plated into each well of a 96-well plate. After the cells attached, the drugs (5 μg/ml of ATRA and 0.5 μg/ml of SAHA) were added to each well and incubated for 6, 12, 16, and 24 hours. After incubation, the Caspase-Glo® substrate reagent was added to each well followed by incubation for 30 minutes. After incubation, the luminescence signal was measured with a luminometer.

patient-derived TICs = assay: Subcutaneous xenograft of patient-derived TICs in NSG mice; assay type: in vivo, mouse; details: no SAHA, i.p.
Protocol: To establish prognostic biomarkers for the best combination chemotherapy, five different patient-derived TICs were tested for responses as xenografts in NSG mice for the best combination chemotherapy based on mutation/transcriptome subtypes. Anti-tumorigenic ability by ATRA+SAHA targeting TICs encapsulated with SAHA was validated (Table 3). […] As placebo treatment, solvent (DMSO) in an equal total volume (0.2 ml/mouse) was injected. Tumor growth kinetics was studied. Combination of ATRA with SAHA further inhibited the self-renewal abilities of TICs in vivo (FIG. 17E).

CD133 (+) Huh7 cells [3] = assay: In vivo tumorigenicity, CD133 (+) Huh7 cells in NOG mice; parameters: species or system mouse
Protocol: The TUNEL staining was performed according to the manufacturer's instructions (4810-30-K, TREVIGEN). In brief, paraffin-embedded tumor sections from each group were de-paraffinized, re-hydrated, and washed twice in PBS. Samples were covered with Proteinase K solution for 30 minutes at room temperature and then washed two times in deionized water. Slides were immersed in quenching solution for 5 minutes at room temperature and then washed in PBS. Slides were incubated in TdT labeling buffer for 5 minutes, immersed with labeling reaction mix, and incubated at 37° C. for 1 hour in a humidity chamber. Samples were immersed in TdT stop buffer for 5 minutes and then washed twice in deionized water for 5 minutes each at room temperature. Samples were covered with Strep-HRP solution and incubated for 10 minutes at 37° C. and washed twice in PBS. Samples were incubated in DAB solution for 5 minutes and then washed in deionized water several times. The samples were counterstained with Methyl Green and mounted on slides for observation.
CD133 was conjugated to the terminal amine functionality on a polyethylene glycol block of polylactide-polyethylene glycol (PLA-PEG) as previously described (Swaminathan et al., 2013). PLGA (30 mg) was dissolved in 1 ml chloroform containing ATRA (6 mg). An oil-in-water emulsion was formed by emulsifying the polymer drug solution in 6 ml of 2.5% w/v aqueous PVA solution by sonication (Sonicator®XL, Misonix, N.Y.) for 5 minutes in an ice bath. The PLA-PEG-CD133 conjugate was dissolved in chloroform (8 mg/100 μl) and added to the oil-in-water emulsion with stirring. The emulsion was stirred for 18 hours at ambient conditions followed by 2 hours under vacuum to remove residual chloroform. Nanoparticles were recovered by ultracentrifugation (35,000 rpm for 35 minutes at 4° C.; OptimaTMLE-80K, Beckman, Palo Alta, Calif.) and washed three times with deionized water to remove excess PVA and unencapsulated drugs. The nanoparticle suspension was then lyophilized (Labconco, FreeZone 4.5, Kansas City, Mo.). Before injection, the lyophilized nanoparticles were re-dissolved in PBS and filtered with a 0.22 micron filter.
A half million freshly sorted CD133 (+) TICs were suspended in 100 μl of Matrigel™ (BD) and injected subcutaneously into NOD/Shi-scid/IL-2Rγ^null(NOG) mice, six mice per group. After the tumor volume reached 100 mm^3, animals received one intravenous dose of CD133-conjugated RA nanoparticle (5 μg/ml) and SAHA (0.5 μg/ml) daily. The animals were monitored regularly for tumor growth and survival every day. All animals work was performed according to national and international guidelines. Animal studies were based on a protocol approved by the Institutional Animal Care and Use Committee at University of Southern California.

[4] = NOG mice, CD133 (+) Huh7 tumors

CC1=C(/C=C/C(C)=C/C=C/C(C)=C/C(=O)O)C(C)(C)CCC1 [ATRA, all-trans retinoic acid]
viability at 20 µg/mL (CD133 (+) Huh7 cells [1]; 20 μg/ml, 48 hours): 41.4%
IC50 (CD133 (+) Huh7 cells [1]; CD133 killing effect, FIG. 44A): 4.06 µg/mL and 13.5 µM
viability at 48 h, 20 μg/ml [2]: 72%
caspase-8 (extrinsic) and caspase-9 (intrinsic) pathway activity (TICs): induced both
anti-tumorigenic ability, % (animals/total) (patient-derived TICs; ATRA 100 mg/m^2/day): 22% (7/32)
anti-tumorigenic ability, % (animals/total) (patient-derived TICs; ATRA 150 mg/m^2/day): 19% (6/32)
tumor growth (CD133 (+) Huh7 cells [3]; ATRA 5 μg/ml in CD133 antibody-conjugated nanoparticles, SAHA 0.5 μg/ml, after 4 days of treatment): did not reduce or even promote tumor growth
TUNEL staining of tumors (CD133 (+) Huh7 cells [3]; [4]): TUNEL-positive tumor cells
tumor morphology, hematoxylin and eosin stained sections (CD133 (+) Huh7 cells [3]; [4]): necrotic regions
